Laboratory results from ChEMBL document CHEMBL1121390, “Rm values and structure-activity relationship of benzodiazepines” (J Med Chem, 1980).

How the values were obtained:
Rattus norvegicus [1] = species on record: Rattus norvegicus; experiment: ED50 value was reported as log1/C, which is the concentration required to reduce locomotor activity by 50% in rats; type: functional
[2] = Partition coefficient (logP); type: physicochemical; conditions: octanol/water
Rattus norvegicus [3] = species on record: Rattus norvegicus; experiment: Fourfod increase in lever pressing in punished rats, ED50 value reported as log1/C; type: functional
Rattus norvegicus [4] = species on record: Rattus norvegicus; experiment: Halving of lever pressing in non punished rats, ED50 value reported as log 1/C; type: functional

SMILES	Log 1/C (Rattus norvegicus [1])	logP [2]	Log 1/C (Rattus norvegicus [3])	Log 1/C (Rattus norvegicus [4])
O=C1C(O)N=C(c2ccccc2F)c2cc(Cl)ccc2N1CCO (stereo not drawn) [DOXEFAZEPAM]	2.239	1.36	1.648	1.697
CCCC(CCC)C(=O)OC1N=C(c2ccccc2)c2cc(Cl)ccc2NC1=O (stereo not drawn)	0.503	5.25		
O=C1C(O)N=C(c2ccccc2Cl)c2cc(Cl)ccc2N1CCO (stereo not drawn)	2.005	1.94	1.959	1.711
O=C1Nc2ccc(Cl)cc2C(c2ccccc2F)=NC1O (stereo not drawn)	2.501	1.48	2.36	2.045
CNC1C[N+]([O-])=C(c2ccccc2)c2cc(Cl)ccc2N1 (stereo not drawn)	1.628	2.5	1.578	1.277
COc1cc(C(=O)OC2N=C(c3ccccc3)c3cc(Cl)ccc3NC2=O)cc(OC)c1OC (stereo not drawn)	0.358	3.54		
O=C1CN=C(c2ccccc2F)c2cc(Cl)ccc2N1	2.046	2.15	2.284	1.825
CC(=O)OC1N=C(c2ccccc2)c2cc(Cl)ccc2N(CCO)C1=O (stereo not drawn)		2.01		
O=C1CN=C(c2ccccc2Cl)c2cc(Cl)ccc2N1 [DELORAZEPAM]	2.79	2.73	2.678	2.509
O=C1CN=C(c2ccccc2Cl)c2cc([N+](=O)[O-])ccc2N1 [CLONAZEPAM]		2.41		
O=C1C(O)N=C(c2ccccc2)c2cc(Cl)ccc2N1CCCO (stereo not drawn)		1.87		
CCN(CC)CCN1C(=O)CN=C(c2ccccc2F)c2cc(Cl)ccc21 [FLURAZEPAM]	1.943	2.35	1.745	1.291
O=C1C[N+]([O-])=C(c2ccccc2)c2ccccc2N1		1.46		
CN1C(=O)C(O)N=C(c2ccccc2Cl)c2cc(Cl)ccc21 (stereo not drawn) [LORMETAZEPAM]	2.594	2.58	2.658	2.394
CCN(CC)CCN1C(=O)C(O)N=C(c2ccccc2)c2cc(Cl)ccc21 (stereo not drawn)		1.67		
CCOC1N=C(c2ccccc2)c2cc(Cl)ccc2N(CCO)C1=O (stereo not drawn)		2.4		
CCN(CC)CCN1C(=O)C(O)N=C(c2ccccc2Cl)c2cc(Cl)ccc21 (stereo not drawn)		2.26		
CCOC1N=C(c2ccccc2)c2cc(Cl)ccc2N(CCOC(C)=O)C1=O (stereo not drawn)		2.87		
CN1C(=O)CN=C(c2ccccc2F)c2cc(Cl)ccc21 [FLUDIAZEPAM]	2.598	2.67	2.721	2.417
O=C1Nc2ccc(Cl)cc2C(c2ccccc2)=NC1O (stereo not drawn) [OXAZEPAM]	1.191		1.192	0.961
O=C1CN=C(c2ccccc2)c2cc(Cl)ccc2N1CC1CC1 [PRAZEPAM]	0.709	3.72		

SMILES	Log 1/C (Rattus norvegicus [1])	logP [2]	Log 1/C (Rattus norvegicus [3])	Log 1/C (Rattus norvegicus [4])
CNC(=O)N1C(=O)CN=C(c2ccccc2)c2cc([N+](=O)[O-])ccc21		1.95		
CN1C(=O)CN=C(c2ccccc2)c2cc(Cl)ccc21 [DIAZEPAM]	1.793		1.876	1.659
O=C(O)CCC(=O)OC1N=C(c2ccccc2)c2cc(Cl)ccc2NC1=O (stereo not drawn)	1.381	1.41		
O=C1C(O)N=C(c2ccccc2)c2cc([N+](=O)[O-])ccc2N1CCO (stereo not drawn)	0.34	0.72		
CN1CCN=C(c2ccccc2)c2cc(Cl)ccc21 [MEDAZEPAM]	1.443	4.05		
O=C1CN=C(c2ccccc2)c2cc(Cl)ccc2N1 [NORDAZEPAM]	1.247		1.83	0.832
O=C1C(O)N=C(c2ccccc2)c2cc(Cl)ccc2N1CCO (stereo not drawn)	0.797	1.35	0.361	0.42
O=C1C[N+]([O-])=C(c2ccccc2)c2cc(Cl)ccc2N1CCO	0.346	0.44		
CCOC1N=C(c2ccccc2)c2cc(Cl)ccc2N(CCCl)C1=O (stereo not drawn)	0.193	3.95		
O=C1CN=C(c2ccccc2)c2cc([N+](=O)[O-])ccc2N1 [NITRAZEPAM]	2.326	2.12		
CC(=O)OCCCN1C(=O)C(OC(C)=O)N=C(c2ccccc2)c2cc(Cl)ccc21 (stereo not drawn)		3		
CN1C(=O)CN=C(c2ccccc2Cl)c2cc(Cl)ccc21	2.409	3.25	2.824	2.409
CN1C(=O)CN=C(C2C=CCCC2)c2cc(Cl)ccc21 (stereo not drawn)		2.76		
O=C1Nc2ccc(Cl)cc2C(c2ccccc2Cl)=NC1O (stereo not drawn) [LORAZEPAM]	3.145		2.444	2.897
O=C(O)CCC(=O)OCCN1C(=O)C[N+]([O-])=C(c2ccccc2)c2cc(Cl)ccc21	0.762	0.19		
CN1C(=O)C(O)N=C(c2ccccc2F)c2cc(Cl)ccc21 (stereo not drawn) [FLUTEMAZEPAM]	2.81	2	2.585	2.371
CC(=O)OCCN1C(=O)C(OC(C)=O)N=C(c2ccccc2)c2cc(Cl)ccc21 (stereo not drawn)		2.48		
CN1C(=O)C(O)N=C(c2ccccc2)c2cc(Cl)ccc21 (stereo not drawn) [TEMAZEPAM]	1.629		1.883	1.228
O=C1CN=C(c2ccccc2)c2cc(Cl)ccc2N1CC(F)(F)F [HALAZEPAM]	1.097	3.73		
CCN(CC)CCN1C(=O)C(O)N=C(c2ccccc2F)c2cc(Cl)ccc21 (stereo not drawn)		1.68		
